# Experimental data: US7932284B2, “Indole sulfonamide modulators of progesterone receptors” (Eli Lilly and Company, priority 2006, dated 2011)
# Key:
# [1] = target: T1, human AR (androgen receptor) (Homo sapiens, UniProt P10275); test: AR competition binding assay (HEK293 cell lysate); conditions: 0.36 nM 3H-methyltrienolone, 293-AR lysate
# T1 construct: expressed in transfected cells; host or cells: HEK293
# T1 sequence (P10275 1-920): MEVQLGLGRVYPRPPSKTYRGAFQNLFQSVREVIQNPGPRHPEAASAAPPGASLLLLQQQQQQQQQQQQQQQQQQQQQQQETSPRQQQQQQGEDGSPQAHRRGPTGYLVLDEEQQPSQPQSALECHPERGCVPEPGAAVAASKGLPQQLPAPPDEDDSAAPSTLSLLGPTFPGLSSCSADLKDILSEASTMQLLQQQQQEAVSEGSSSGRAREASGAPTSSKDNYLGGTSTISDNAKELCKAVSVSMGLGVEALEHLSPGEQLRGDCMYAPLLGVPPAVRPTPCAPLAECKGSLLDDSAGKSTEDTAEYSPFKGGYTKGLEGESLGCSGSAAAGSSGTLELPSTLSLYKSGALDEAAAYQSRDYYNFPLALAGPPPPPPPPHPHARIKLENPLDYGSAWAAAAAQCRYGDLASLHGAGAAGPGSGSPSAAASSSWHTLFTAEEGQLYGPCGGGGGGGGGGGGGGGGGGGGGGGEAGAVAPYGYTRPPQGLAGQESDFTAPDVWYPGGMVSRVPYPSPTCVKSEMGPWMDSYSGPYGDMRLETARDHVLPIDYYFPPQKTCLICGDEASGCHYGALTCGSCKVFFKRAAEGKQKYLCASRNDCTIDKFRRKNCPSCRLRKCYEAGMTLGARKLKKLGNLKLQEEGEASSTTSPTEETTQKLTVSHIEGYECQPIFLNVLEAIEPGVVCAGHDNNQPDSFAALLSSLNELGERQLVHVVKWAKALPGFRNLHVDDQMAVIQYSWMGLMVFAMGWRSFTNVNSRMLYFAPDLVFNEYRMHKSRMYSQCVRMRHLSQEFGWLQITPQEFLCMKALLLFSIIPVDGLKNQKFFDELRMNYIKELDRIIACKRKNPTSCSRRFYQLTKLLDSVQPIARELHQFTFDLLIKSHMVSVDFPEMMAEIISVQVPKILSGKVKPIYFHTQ
# Method: (§1) Cell lysates from HEK293 cells overexpressing human GR (glucocorticoid receptor), AR (androgen receptor), MR (mineralocorticoid receptor) or PR (progesterone receptor) are used for competition binding assays to determine Ki values for compounds of interest. Briefly, competition binding assays are run in a buffer containing 20 mM HEPES, pH 7.6, 0.2 mM EDTA, 75 mM NaCl, 1.5 mM MgCl2, 20% glycerol, 20 mM sodium molybdate, 0.2 mM DTT, 20 ug/ml aprotinin, and 20 ug/ml leupeptin, using either 0.3 nM ^3H-dexamethasone for GR binding, 0.36 nM ^3H-methyltrienolone for AR binding, 0.25 nM ^3H-aldosterone for MR binding, or 0.29 nM ^3H-methyltrienolone for PR binding, and either 20 ug 293-GR lysate, 22 ug 293-AR lysate, 20 ug 293-MR lysate or 40 ug 293-PR lysate per well. Competing compounds are added at various concentrations in half-log increments. Non-specific binding is determined in the presence of 500 nM dexamethasone for GR binding, 500 nM aldosterone for MR binding, or 500 nM methyltrienolone for AR and PR binding. The binding reaction (140 μl) is incubated overnight at 4° C., then 70 μl of cold charcoal-dextran buffer (containing per 50 ml of assay buffer, 0.75 g of charcoal and 0.25 g of dextran) is added to each reaction. Plates are mixed 8 minutes on an orbital shaker at 4° C. Plates are then centrifuged at 3,000 rpm at 4° C. for 10 minutes. An aliquot of 120 μl of the mixture is transferred to another 96-well plate and 175 μl of Wallac Optiphase “Hisafe 3” scintillation fluid is added to each well. Plates are sealed and shaken vigorously on an orbital shaker. After an incubation of 2 hrs, plates are read in a Wallac Microbeta counter. […] The Kd for ^3H-dexamethasone for GR binding, ^3H-methyltrienolone for AR binding, ^3H-aldosterone for MR binding, or ^3H-methyltrienolone for PR binding, is determined by saturation binding. The IC50 values for compounds are converted to Ki using Cheng-Prusoff equation and the Kd determined by saturation binding assay.
# [2] = target: T2, human MR (mineralocorticoid receptor) (Homo sapiens, UniProt P08235); test: MR competition binding assay (HEK293 cell lysate); conditions: 0.25 nM 3H-aldosterone, 293-MR lysate
# T2 construct: expressed in transfected cells; host or cells: HEK293
# T2 sequence (P08235 1-984): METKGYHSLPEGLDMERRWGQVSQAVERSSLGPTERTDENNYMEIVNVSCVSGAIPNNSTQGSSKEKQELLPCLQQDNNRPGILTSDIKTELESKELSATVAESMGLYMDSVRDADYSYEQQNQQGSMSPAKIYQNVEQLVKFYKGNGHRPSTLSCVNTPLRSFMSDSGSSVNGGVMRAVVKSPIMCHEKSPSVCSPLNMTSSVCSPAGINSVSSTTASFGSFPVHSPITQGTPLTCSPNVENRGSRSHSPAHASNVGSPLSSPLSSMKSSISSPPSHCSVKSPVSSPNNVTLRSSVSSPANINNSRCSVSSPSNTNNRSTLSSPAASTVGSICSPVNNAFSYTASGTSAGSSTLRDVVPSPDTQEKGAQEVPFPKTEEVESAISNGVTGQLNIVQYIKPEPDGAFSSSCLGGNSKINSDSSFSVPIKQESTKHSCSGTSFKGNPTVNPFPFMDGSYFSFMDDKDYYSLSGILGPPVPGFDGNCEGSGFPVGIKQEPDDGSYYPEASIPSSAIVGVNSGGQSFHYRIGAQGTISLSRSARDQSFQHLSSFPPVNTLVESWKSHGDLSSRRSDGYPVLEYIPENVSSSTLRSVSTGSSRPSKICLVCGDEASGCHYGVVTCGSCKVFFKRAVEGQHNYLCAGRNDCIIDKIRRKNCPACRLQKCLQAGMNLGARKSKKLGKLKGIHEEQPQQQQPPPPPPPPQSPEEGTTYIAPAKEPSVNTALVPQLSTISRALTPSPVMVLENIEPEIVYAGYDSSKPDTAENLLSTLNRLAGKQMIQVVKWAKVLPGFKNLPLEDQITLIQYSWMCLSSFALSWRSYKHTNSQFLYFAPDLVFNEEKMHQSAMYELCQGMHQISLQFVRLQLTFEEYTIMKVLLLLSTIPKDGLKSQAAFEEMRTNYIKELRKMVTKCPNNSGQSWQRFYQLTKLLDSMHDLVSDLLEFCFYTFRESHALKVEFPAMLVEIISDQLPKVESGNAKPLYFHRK
# Method: as §1
SMILES,Ki [1],Ki [2]
"COc1ccc(-c2cn(C(C)C)c3cc(NS(C)(=O)=O)ccc23)cn1 [Example 88, N-[1-Isopropyl-3-(6-methoxy-pyridin-3-yl)-1H-indol-6-yl]-methanesulfonamide]",> 1 µM,> 1 µM
"Cn1cc(-c2ccc([N+](=O)[O-])cc2)c2ccc(NS(C)(=O)=O)cc21 [Example 30, N-[1-Methyl-3-(4-nitro-phenyl)-1H-indol-6-yl]-methanesulfonamide]",> 1 µM,> 1 µM
"CC(C)n1cc(-c2ccc(C#N)s2)c2ccc(NS(C)(=O)=O)cc21 [Example 43, N-[3-(5-Cyano-thiophen-2-yl)-1-isopropyl-1H-indol-6-yl]-methanesulfonamide]",0.1 to 0.5 µM,0.1 to 0.5 µM
"Cc1ccc(-c2cn(C(C)C)c3cc(NS(C)(=O)=O)ccc23)cc1F [Example 84, N-[3-(3-Fluoro-4-methyl-phenyl)-1-isopropyl-1H-indol-6-yl]-methanesulfonamide]",0.5 to 1 µM,0.5 to 1 µM
"COc1ccc(-c2cn(C(C)C)c3cc(NS(C)(=O)=O)ccc23)cc1C [Example 86, N-[1-Isopropyl-3-(4-methoxy-3-methyl-phenyl)-1H-indol-6-yl]-methanesulfonamide]",> 1 µM,> 1 µM
"CCOC(=O)c1ccc(-c2cn(C(C)C)c3cc(NS(C)(=O)=O)ccc23)cc1 [Example 74, 4-(1-Isopropyl-6-methanesulfonylamino-1H-indol-3-yl)-benzoic acid ethyl ester]",> 1 µM,0.1 to 0.5 µM
"CC(C)n1cc(-c2ccc3oc(=O)ccc3c2)c2ccc(NS(C)(=O)=O)cc21 [Example 96, N-[1-Isopropyl-3-(2-oxo-2H-chromen-6-yl)-1H-indol-6-yl]-methanesulfonamide]",> 1 µM,> 1 µM
"CC(C)n1cc(-c2ccccc2)c2ccc(NS(C)(=O)=O)cc21 [Example 85, N-(1-Isopropyl-3-phenyl-1H-indol-6-yl)-methanesulfonamide]",0.1 to 0.5 µM,0.5 to 1 µM
"CC(C)n1cc(-c2ccc3sccc3c2)c2ccc(NS(C)(=O)=O)cc21 [Example 95, N-(3-Benzo[b]thiophen-5-yl-1-isopropyl-1H-indol-6-yl)-methanesulfonamide]",0.5 to 1 µM,0.5 to 1 µM
"CC(C)n1cc(-c2ccc(C#N)n2C)c2ccc(NS(C)(=O)=O)cc21 [Example 78, N-[3-(5-Cyano-1-methyl-1H-pyrrol-2-yl)-1-isopropyl-1H-indol-6-yl]-methanesulfonamide]",0.05 to 0.1 µM,0.1 to 0.5 µM
"CC(C)n1cc(-c2ccc(C#N)cc2)c2ccc(NS(=O)(=O)N3CCOCC3)cc21 [Example 100, Morpholine-4-sulfonic acid [3-(4-cyano-phenyl)-1-isopropyl-1H-indol-6-yl]-amide]",> 1 µM,> 1 µM
"Cn1cc(-c2ccc(C#N)cc2)c2ccc(NS(=O)(=O)c3cccs3)cc21 [Example 32, Thiophene-2-sulfonic acid [3-(4-cyano-phenyl)-1-methyl-1H-indol-6-yl]-amide]",> 1 µM,> 1 µM

# Continued, values first:
Ki [1],Ki [2],SMILES
> 1 µM,> 1 µM,"CS(=O)(=O)Nc1ccc2c(-c3ccc(C#N)cc3)cn(C3CCCC3)c2c1 [Example 63, N-[3-(4-Cyano-phenyl)-1-cyclopentyl-1H-indol-6-yl]-methanesulfonamide]"
0.1 to 0.5 µM,0.5 to 1 µM,"CC(C)Cn1cc(-c2ccc(C#N)cc2)c2ccc(NS(C)(=O)=O)cc21 [Example 29, N-[3-(4-Cyano-phenyl)-1-isobutyl-1H-indol-6-yl]-methanesulfonamide]"
0.1 to 0.5 µM,0.1 to 0.5 µM,"CS(=O)(=O)Nc1ccc2c(-c3ccc(C#N)cc3)cn(CC3CCCCC3)c2c1 [Example 77, N-[3-(4-Cyano-phenyl)-1-cyclohexylmethyl-1H-indol-6-yl]-methanesulfonamide]"
> 1 µM,> 1 µM,"CC(C)n1cc(-c2ccc(C#N)cc2)c2ccc(NS(=O)(=O)C(F)(F)F)cc21 [Example 98, N-[3-(4-Cyano-phenyl)-1-isopropyl-1H-indol-6-yl]-C,C,C-trifluoro-methanesulfonamide]"
> 1 µM,> 1 µM,"Cn1cc(-c2ccc(C#N)cc2)c2ccc(NS(C)(=O)=O)cc21 [Example 25, N-[3-(4-Cyano-phenyl)-1-methyl-1H-indol-6-yl]-methanesulfonamide]"
> 1 µM,< 0.05 µM,"CS(=O)(=O)Nc1ccc2c(-c3ccc(C#N)cc3)cn(Cc3ccccc3)c2c1 [Example 72, N-[1-Benzyl-3-(4-cyano-phenyl)-1H-indol-6-yl]-methanesulfonamide]"
0.1 to 0.5 µM,0.5 to 1 µM,"CC(C)n1cc(-c2ccc(C=NO)cc2)c2ccc(NS(C)(=O)=O)cc21 [Example 94, N-{3-[4-(Hydroxyimino-methyl)-phenyl]-1-isopropyl-1H-indol-6-yl}-methanesulfonamide]"
> 1 µM,> 1 µM,"CC(C)n1cc(-c2ccc(C(N)=O)cc2)c2ccc(NS(C)(=O)=O)cc21 [Example 87, 4-(1-Isopropyl-6-methanesulfonylamino-1H-indol-3-yl)-benzamide]"
> 1 µM,0.5 to 1 µM,"CSc1ccc(-c2cn(C(C)C)c3cc(NS(C)(=O)=O)ccc23)cc1 [Example 83, N-[1-Isopropyl-3-(4-methylsulfanyl-phenyl)-1H-indol-6-yl]-methanesulfonamide]"
> 1 µM,> 1 µM,"CC(C)n1cc(-c2ccc(C#N)cc2)c2ccc(NS(C)(=O)=O)cc21 [Example 28, N-[3-(4-Cyano-phenyl)-1-isopropyl-1H-indol-6-yl]-methanesulfonamide]"
